In patent US9242945B2, “Substituted 2-benzylidene-2H-benzo[b][1,4]thiazin-3(4H)-ones, derivatives thereof, and therapeutic uses thereof” (TEMPLE UNIVERSITY—OF THE COMMONWEALTH SYSTEM OF HIGHER …, priority 2011, dated 2016):

What was measured:
[1] = tested on: MiaPaca 2; test: Cancer cell cytotoxicity assay, MiaPaca 2; type: cell-based; conditions: Homo sapiens, MIA PaCa-2; MiaPaca 2, Pancreatic Cancer
Method: (§1) The effect of the compounds of the invention on tumor cells was determined by the assay described by Latham et al., Oncogene 12:827-837 (1996). Tumor cells K562 (chronic myelogenous leukemia; leukemia cell line +ve for Bcr-Abl) or DU145 (prostate cancer) were plated in 12-well dishes at a cell density of 2.5×10^4 cells well. The plated cells were treated 24 hours later with a compound of the invention dissolved in DMSO at multiple concentrations ranging from 0.01 μM to 100 μM. The plates were examined 96 hours later under an inverted microscope, Olympus CK-2 using a 10× objective, and compound activity was noted by physical observation. When necessary, the total number of viable cells was determined by trypsinizing the wells and counting the number of viable cells, as determined by trypan blue exclusion, using a hemacytometer. Where “Lower” and “Upper” value are provided in Table 5, the IC50 was determined to be within that range. […]
(§2) The cytotoxicity of Compound 42, (Z)-6-((2,6-dichlorobenzyl)sulfonyl)-2-(4-hydroxy-3-nitrobenzylidene)-2H-benzo[b][1,4]thiazin-3(4H)-one, was determined according the assay method of Example 7 on the prostate (androgen dependent or independent), breast and pancreatic cancer cell lines listed in Table 6A, below, and the additional cell lines listed in Table 6B, below. […]

[2] = tested on: K562 (chronic myelogenous leukemia; leukemia cell line +ve for Bcr-Abl); test: Cytotoxicity assay, K562 tumor cells; type: cell-based; conditions: Homo sapiens
Method: (§3) The effect of the compounds of the invention on tumor cells was determined by the assay described by Latham et al., Oncogene 12:827-837 (1996). Tumor cells K562 (chronic myelogenous leukemia; leukemia cell line +ve for Bcr-Abl) or DU145 (prostate cancer) were plated in 12-well dishes at a cell density of 2.5×10^4 cells well. The plated cells were treated 24 hours later with a compound of the invention dissolved in DMSO at multiple concentrations ranging from 0.01 μM to 100 μM. The plates were examined 96 hours later under an inverted microscope, Olympus CK-2 using a 10× objective, and compound activity was noted by physical observation. When necessary, the total number of viable cells was determined by trypsinizing the wells and counting the number of viable cells, as determined by trypan blue exclusion, using a hemacytometer. Where “Lower” and “Upper” value are provided in Table 5, the IC50 was determined to be within that range. When only a “Lower” value is provided and no “Upper” value is listed, the IC50 was that value, or less than or greater than that value, as set forth in the Table.
(§4) The cytotoxicity of Compound 42, (Z)-6-((2,6-dichlorobenzyl)sulfonyl)-2-(4-hydroxy-3-nitrobenzylidene)-2H-benzo[b][1,4]thiazin-3(4H)-one, was determined according the assay method of Example 7 on the prostate (androgen dependent or independent), breast and pancreatic cancer cell lines listed in Table 6A, below, and the additional cell lines listed in Table 6B, below. The human mesenchymal stem cell line HMSC.hTERT and normal human fibroblast cell line HFL was included in the test.

[3] = tested on: VCAP; test: Cancer cell cytotoxicity assay, VCAP; type: cell-based; conditions: Homo sapiens, Prostate Cancer
Method: as §1, §2

[4] = tested on: Z138C; test: Cancer cell cytotoxicity assay, Z138C; type: cell-based; conditions: Mantle cell lymphoma
Method: as §1, §2

[5] = tested on: U266B1; test: Cancer cell cytotoxicity assay, U266B1; type: cell-based; conditions: U266B1, Multiple Myeloma
Method: as §1, §2

[6] = tested on: MDA.MB-468; test: Cancer cell cytotoxicity assay, MDA.MB-468; type: cell-based; conditions: Homo sapiens; MDA.MB-468, Breast Cancer
Method: as §1, §2

[7] = target: T1, CK2α (Homo sapiens, UniProt P68400); test: Casein kinase 2 inhibition, CK2α subunit (32P-ATP kinase assay); type: biochemical; conditions: 20 μM cold ATP; 30 min preincubation, 20 min at 30° C.
T1 construct: CK2α (human full length protein)
Method: The ability of Compound 42 to inhibit the activity of casein kinase 2 (CK2) was determined as follows using the catalytic CK2 subunits CK2α and CK2α2. Two and one half nanograms of CK2α (human full length protein; Invitrogen PV3248), 2.5 ng of a CK2α form containing amino acids 3-339) or 10 ng of CK2α2 (human full length protein; Invitrogen PV3624) was diluted into kinase buffer (20 mM Tris pH 7.5, 10 mM MgCl2, 0.01% NP-40, 1 mM EGTA, 2 mM DTT) and incubated with varying concentrations of Compound 42 at room temperature for 30 minutes. Kinase reactions were initiated by the addition of 1 μg of CK2 substrate α-synuclein or 40 μM CK2 synthetic peptide substrate (AnaSpec, San Jose, Calif.), 20 μM cold ATP, and 20 μCi γ-^32P-ATP. The reactions were incubated at 30° C. for 20 minutes, terminated by the addition of 2× Laemmle sample buffer, boiled for 2 minutes, resolved by 12% acrylamide SDS-PAGE, and subjected to autoradiography.

[8] = tested on: RPWE-1; test: Cancer cell cytotoxicity assay, RPWE-1; type: cell-based; conditions: RPWE-1, Normal prostate epithelium
Method: as §1, §2

[9] = tested on: DU145 (prostate cancer); test: Cytotoxicity assay, DU145 tumor cells; type: cell-based; conditions: Homo sapiens
Method: as §3, §4

[10] = tested on: MDA.MB-231; test: Cancer cell cytotoxicity assay, MDA.MB-231; type: cell-based; conditions: Homo sapiens; MDA.MB-231, Breast Cancer
Method: as §1, §2

T1 sequence (P68400 3-339 limits assumed): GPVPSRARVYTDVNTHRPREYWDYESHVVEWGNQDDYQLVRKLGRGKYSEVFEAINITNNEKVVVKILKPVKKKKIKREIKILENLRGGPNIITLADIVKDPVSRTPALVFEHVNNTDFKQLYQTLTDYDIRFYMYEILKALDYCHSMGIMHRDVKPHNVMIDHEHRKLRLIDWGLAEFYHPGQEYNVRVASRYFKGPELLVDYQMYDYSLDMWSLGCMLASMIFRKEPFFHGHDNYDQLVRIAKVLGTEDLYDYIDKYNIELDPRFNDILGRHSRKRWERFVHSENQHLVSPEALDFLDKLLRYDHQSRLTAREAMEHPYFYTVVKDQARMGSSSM

SMILES: O=C1Nc2cc(S(=O)(=O)Cc3c(Cl)cccc3Cl)ccc2S/C1=C\c1ccc(O)c([N+](=O)[O-])c1 [Compound 42, (Z)-6-((2,6-dichlorobenzyl)sulfonyl)-2-(4-hydroxy-3-nitrobenzylidene)-2H-benzo[b][1,4]thiazin-3(4H)-one]
- GI50 [1]: 90 nM
- IC50 ([2]; K562, 96 h treatment, lower limit of the IC50 range, or the IC50 itself (or its bound) where no Upper value is listed, read-out: K562 IC50 (μm) Lower (μm)): 100 nM
- GI50 ([2]; K562, Chronic myelogenous leukemia): 160 nM
- GI50 [3]: 180 nM
- GI50 [4]: 70 nM
- GI50 [5]: 100 nM
- GI50 [6]: 200 nM
- IC50 [7]: 362 nM
- GI50 [8]: 100 nM
- IC50 ([9]; DU-145, 96 h treatment, lower limit of the IC50 range, or the IC50 itself (or its bound) where no Upper value is listed, read-out: DU145 IC50 (μm) Lower (μm)): 150 nM
- GI50 ([9]; DU-145, Prostate Cancer (Androgen Independent)): 160 nM
- GI50 [10]: 120 nM
